Test results as given in publication PMC10966741, “Consensus Pharmacophore Strategy For Identifying Novel SARS-Cov-2 M^pro Inhibitors from Large Chemical Libraries” (Journal of Chemical Information and Modeling, 2024).

The compounds below were run against SARS-CoV-2 M^pro (main protease; 3CLpro) (Severe acute respiratory syndrome coronavirus 2, UniProt P0DTC1) (assay: continuous FRET cleavage assay).
Format: biochemical
Compound `Cc1ccc(NC(=O)C2CC(=O)Nc3cc(F)ccc32)c(OCC(F)(F)F)c1` (stereo not drawn) [compound 1, 7-fluoro-N-[4-methyl-2-(2,2,2-trifluoroethoxy)phenyl]-2-oxo-1,2,3,4-tetrahydroquinoline-4-carboxamide] has an IC50 of 86.6 µM. Compound `CCOc1cc(C)ccc1NC(=O)C1CC(=O)Nc2ccccc21` (stereo not drawn) [compound 4, N-(2-ethoxy-4-methylphenyl)-2-oxo-1,2,3,4-tetrahydroquinoline-4-carboxamide] has an IC50 of 32.6 µM. `O=C(Nc1ccccc1-c1nc2ccccc2[nH]1)c1cc(C2CC2)[nH]n1` [compound 5, N-[2-(1H-1,3-benzodiazol-2-yl)phenyl]-5-cyclopropyl-1H-pyrazole-3-carboxamide] gave an IC50 of 70.5 µM.
